Reference: patent US5348949A, “Method of preparing N-oxo-tetrahydro-β-carbolines” (Duphar International Research B.V., priority 1989, dated 1994)
Converted amounts (≈) assume the structure as drawn. “Also recorded” adds a separate entry of the source. Where two headings read alike, the source gives them in different places.

How the values were obtained:
[1] = test system: Respiratory syncytial virus (Lung); assay: inhibition of virus induced cytopathogenicity, Hela cells, respiratory syncytial virus (Lung); type: cell-based; conditions: human respiratory syncytial virus
Procedure: (§1) Antiviral activity of some eudistomin derivatives was determined in a large number of in-vitro assays as described in reference 9. These tests are all based on the inhibition of virus induced cytopathogenicity. Depending upon the virus studied, different cell cultures were used. […] New compound 67 has the additional advantage of a 10-fold higher potency as compared with known compound 63.

P 388 leukemia cells = assay: inhibition of P 388 leukemia cells colony formation (in vitro antitumour); type: cell-based; conditions: for IC50: Mus musculus, P388, read-out: ID50
Procedure: The antitumour activity of some eudistomin derivatives and the references antitumour drug was assessed in an invitro test with high predictive power for in-vivo activity. In this assay the inhibition of P 388 leukemia cells colony formation was determined at several concentrations of the test compounds as described in reference 8. The activity is expressed as an ID50 value, which indicates the dose causing 50% inhibition with respect to untreated control cells.

[2] = test system: influenza virus B (Singapore); assay: microbe, parasite or virus in culture; type: cell-based; conditions: unidentified influenza virus, read-out: MIC influenza virus B (Singapore)
Polio virus = assay: microbe, parasite or virus in culture; type: cell-based; conditions: read-out: MIC Polio virus
Reovirus-1 = assay: inhibition of virus induced cytopathogenicity, Vero cells, Reovirus-1; type: cell-based
Procedure: as §1

Coxsasckie virus B4 = assay: inhibition of virus induced cytopathogenicity, Vero cells, Coxsackie virus B4; type: cell-based; conditions: Enterovirus B
Procedure: as §1

[3] = test system: influenza virus A (Ishikawa); assay: microbe, parasite or virus in culture; type: cell-based; conditions: unidentified influenza virus, read-out: MIC influenza virus A (Ishikawa)
Vaccinia virus = assay: microbe, parasite or virus in culture; type: cell-based; conditions: Orthopoxvirus vaccinia, read-out: MIC Vaccinia virus
[4] = cytotoxicity in Vero cell cultures; conditions: monkey, vero cells
Semliki forest virus = assay: inhibition of virus induced cytopathogenicity, Vero cells, Semliki forest virus; type: cell-based
Procedure: as §1

parainfluenza-3 virus = assay: inhibition of virus induced cytopathogenicity, Vero cells, parainfluenza-3 virus; type: cell-based
Procedure: as §1

[5] = cytotoxicity in primary rabbit kidney (PRK) cell cultures; conditions: primary rabbit kidney cells
[6] = cytotoxicity in Hela cell cultures; conditions: human, hela cells
[7] = cytotoxicity in MDCK cell cultures; conditions: dog
Coxsackie virus B4 = assay: inhibition of virus induced cytopathogenicity, Hela cells, Coxsackie virus B4; type: cell-based; conditions: Enterovirus B
Procedure: as §1

Sindbis virus = assay: inhibition of virus induced cytopathogenicity, Vero cells, Sindbis virus; type: cell-based
Procedure: as §1

[8] = test system: Herpes simplex virus-2 (196); type: cell-based; conditions: Human alphaherpesvirus 2; PRK cells
Procedure: as §1

[9] = test system: Herpes simplex virus-1 (F); type: cell-based; conditions: Human alphaherpesvirus 1; PRK cells
Procedure: as §1

[10] = test system: Herpes simplex virus-2 (Lyons); type: cell-based; conditions: Human alphaherpesvirus 2; PRK cells
Procedure: as §1

[11] = test system: Herpes simplex virus-1 (McInyre); type: cell-based; conditions: Human alphaherpesvirus 1; PRK cells
Procedure: as §1

[12] = test system: Herpes simplex virus-2 (G); type: cell-based; conditions: Human alphaherpesvirus 2; PRK cells
Procedure: as §1

[13] = test system: Herpes simplex virus-1 (KOS); type: cell-based; conditions: Human alphaherpesvirus 1; PRK cells
Procedure: as §1

22 antiviral test models = assay: 22 antiviral assays taken together (summary statements); type: cell-based
Procedure: as §1

[14] = test system: Vesicular stomatitis virus; assay: microbe, parasite or virus in culture; type: cell-based; conditions: read-out: MIC Vesicular stomatitis virus
in vitro [15] = conditions: dog, mdck
[16] = test system: Vesicular stomatitis virus; assay: microbe, parasite or virus in culture; type: cell-based; conditions: read-out: MIC Vesicular stomatitis virus; remark: listed apart in the source
in vitro [17] = conditions: rabbit, primary rabbit kidney cells
in vitro [18] = conditions: human, hela cells
in vitro [19] = conditions: monkey, vero cells

SMILES	MIC [1]	MIC [2]	MIC (Polio virus)	MIC (Reovirus-1)	MIC (Coxsasckie virus B4)	MIC [3]	MIC (Vaccinia virus)	MIC (Semliki forest virus)	MIC (parainfluenza-3 virus)	MIC (Coxsackie virus B4)	MIC (Sindbis virus)	MIC [8]	MIC [9]	MIC [10]	MIC [11]	MIC [12]	MIC [13]	IC50 (P 388 leukemia cells)	MCC (in vitro [15])	MCC (in vitro [17])	further results
c1ccc2c3c([nH]c2c1)C1CCSCON1CC3 (racemic) [Compound 50, (±)-Deamino, debromo Eudistomin L]	> 8 µg/mL	> 40 µg/mL	> 10 µg/mL	> 10 µg/mL	> 25 µg/mL	> 40 µg/mL	> 70 µg/mL	> 25 µg/mL	> 10 µg/mL	> 10 µg/mL	> 10 µg/mL	> 70 µg/mL	> 70 µg/mL	> 70 µg/mL	> 70 µg/mL	> 120 µg/mL	> 70 µg/mL	–	–	–	ID50 (P 388 leukemia cells; dose causing 50% inhibition of colony formation vs untreated control cells): no activity at 1.0; MCC [4]: ≥ 40 µg/mL; MCC [5]: ≥ 120 µg/mL; MCC [6]: ≥ 30 µg/mL; MCC [7]: 80 µg/mL
N[C@@H]1CSCON2CCc3c([nH]c4ccccc34)[C@H]12 [Compound 63, (1S.13bS)-debromo Eudistomin L]	0.8 µg/mL (≈ 2.91 µM)	0.8 µg/mL (≈ 2.91 µM)	0.7 µg/mL (≈ 2.54 µM)	0.4 µg/mL (≈ 1.45 µM)	0.55 µg/mL (≈ 2 µM)	0.8 µg/mL (≈ 2.91 µM)	0.25 µg/mL (≈ 0.908 µM)	0.45 µg/mL (≈ 1.63 µM)	> 0.6 µg/mL	0.55 µg/mL (≈ 2 µM)	0.35 µg/mL (≈ 1.27 µM)	0.2 µg/mL (≈ 0.726 µM)	0.25 µg/mL (≈ 0.908 µM)	0.38 µg/mL (≈ 1.38 µM)	0.2 µg/mL (≈ 0.726 µM)	0.2 µg/mL (≈ 0.726 µM)	1.35 µg/mL (≈ 4.9 µM)	42 µg/mL (≈ 153 µM)	8 µg/mL	≥ 25 µg/mL	spectrum of antiviral activity (22 antiviral test models): exceptionally wide range of activities; also recorded: very broad spectrum of antiviral activity; MIC [14]: 0.2 µg/mL (≈ 0.726 µM); MIC [16]: 0.2 µg/mL (≈ 0.726 µM); MCC (in vitro [18]): ≥ 4 µg/mL; MCC (in vitro [19]): ≥ 4 µg/mL
COc1ccc2[nH]c3c(c2c1)CCN1OCSCC(N)C31 [Compound 67, (1S,13bS)-5-methoxy Eudistomin L]	0.15 µg/mL (≈ 0.491 µM)	> 0.32 µg/mL	0.045 µg/mL (≈ 0.147 µM)	0.045 µg/mL (≈ 0.147 µM)	0.07 µg/mL (≈ 0.229 µM)	> 0.32 µg/mL	0.012 µg/mL (≈ 0.0393 µM)	0.11 µg/mL (≈ 0.36 µM)	0.55 µg/mL (≈ 1.8 µM)	0.045 µg/mL (≈ 0.147 µM)	0.045 µg/mL (≈ 0.147 µM)	0.014 µg/mL (≈ 0.0458 µM)	0.039 µg/mL (≈ 0.128 µM)	0.023 µg/mL (≈ 0.0753 µM)	0.013 µg/mL (≈ 0.0426 µM)	0.012 µg/mL (≈ 0.0393 µM)	0.045 µg/mL (≈ 0.147 µM)	3.8 µg/mL (≈ 12.4 µM)	0.8 µg/mL	≥ 2.5 µg/mL	spectrum of antiviral activity (22 antiviral test models): exceptionally wide range of activities; also recorded: very broad spectrum of antiviral activity; MCC (in vitro [18]): 2 µg/mL; MCC (in vitro [19]): ≥ 1 µg/mL
NC(=O)c1ncn([C@@H]2O[C@H](CO)[C@@H](O)[C@H]2O)n1 [Ribavirin, ribavirin, reference compound]	3 µg/mL (≈ 12.3 µM)	15 µg/mL (≈ 61.4 µM)	110 µg/mL (≈ 450 µM)	125 µg/mL (≈ 512 µM)	> 300 µg/mL	15 µg/mL (≈ 61.4 µM)	30 µg/mL (≈ 123 µM)	> 300 µg/mL	135 µg/mL (≈ 553 µM)	70 µg/mL (≈ 287 µM)	> 235 µg/mL	> 200 µg/mL	> 200 µg/mL	> 200 µg/mL	> 200 µg/mL	> 200 µg/mL	> 200 µg/mL	–	> 200 µg/mL	≥ 400 µg/mL	MCC (in vitro [18]): ≥ 400 µg/mL; MCC (in vitro [19]): > 400 µg/mL
COc1cccc2c1C(=O)c1c(O)c3c(c(O)c1C2=O)C[C@@](O)(C(=O)CO)C[C@@H]3O[C@H]1C[C@H](N)[C@H](O)[C@H](C)O1 [adriamycin, reference compound]	–	–	–	–	–	–	–	–	–	–	–	–	–	–	–	–	–	20 µg/mL (≈ 36.8 µM)	–	–	–
